# Measurements as given in patent publication US8877748B2, “Heterocyclic fused anthraquinone derivatives, manufacturing method and pharmaceutical composition using thereof” (National Defense Medical Center, priority 2012, dated 2014).
# Experiments:
# [1] = test system: PC-3 prostate cancer cell line; assay: SRB assay cell viability, PC-3 prostate cancer cell line; type: cell-based, human; conditions: Homo sapiens, PC-3 prostate cancer cell line, Table II prints no unit, μM printed, read-out: SRB assay: 50% inhibition of cancer cell proliferation of sample concentration (IC50) of PC-3 prostate cancer cell line
# HL-60, TB = assay: NCI one-dose screening, leukemia HL-60, TB; type: cell-based, human; conditions: 10 μM
# MOLT-4 = assay: NCI one-dose screening, leukemia MOLT-4; type: cell-based, human; conditions: 10 μM
# SR = assay: NCI one-dose screening, leukemia SR; type: cell-based, human; conditions: 10 μM
# PRMI-8226 cell line = assay: NCI one-dose screening, leukemia PRMI-8226; type: cell-based, human; conditions: 10 μM
# K562cell line = assay: NCI one-dose screening, leukemia K562; type: cell-based, human; conditions: 10 μM
# EKVX = assay: NCI one-dose screening, non-small cell lung cancer EKVX; type: cell-based, human; conditions: 10 μM
# HOP-62 = assay: NCI one-dose screening, non-small cell lung cancer HOP-62; type: cell-based, human; conditions: 10 μM
# HOP-92 = assay: NCI one-dose screening, non-small cell lung cancer HOP-92; type: cell-based, human; conditions: 10 μM
# NCI-H226 = assay: NCI one-dose screening, non-small cell lung cancer NCI-H226; type: cell-based, human; conditions: 10 μM
# NCI-H23 = assay: NCI one-dose screening, non-small cell lung cancer NCI-H23; type: cell-based, human; conditions: 10 μM
# NCI-H460 = assay: NCI one-dose screening, non-small cell lung cancer NCI-H460; type: cell-based, human; conditions: 10 μM
# NCI-H522 = assay: NCI one-dose screening, non-small cell lung cancer NCI-H522; type: cell-based, human; conditions: 10 μM
# A549/ATCC = assay: NCI one-dose screening, non-small cell lung cancer A549/ATCC; type: cell-based, human; conditions: 10 μM
# COLO 205 = assay: NCI one-dose screening, colon cancer COLO 205; type: cell-based, human; conditions: 10 μM
# HCC-2998 = assay: NCI one-dose screening, colon cancer HCC-2998; type: cell-based, human; conditions: 10 μM
# HCT-116 = assay: NCI one-dose screening, colon cancer HCT-116; type: cell-based, human; conditions: 10 μM
# HCT-15 = assay: NCI one-dose screening, colon cancer HCT-15; type: cell-based, human; conditions: 10 μM
# KM12 = assay: NCI one-dose screening, colon cancer KM12; type: cell-based, human; conditions: 10 μM
# HT29 = assay: NCI one-dose screening, colon cancer HT29; type: cell-based, human; conditions: 10 μM
# SF-268 = assay: NCI one-dose screening, CNS cancer SF-268; type: cell-based, human; conditions: 10 μM
# SF-539 = assay: NCI one-dose screening, CNS cancer SF-539; type: cell-based, human; conditions: 10 μM
# SNB-19 = assay: NCI one-dose screening, CNS cancer SNB-19; type: cell-based, human; conditions: 10 μM
# SNB-75 = assay: NCI one-dose screening, CNS cancer SNB-75; type: cell-based, human; conditions: 10 μM
# U251 = assay: NCI one-dose screening, CNS cancer U251; type: cell-based, human; conditions: 10 μM
# LOX IMVI = assay: NCI one-dose screening, melanoma LOX IMVI; type: cell-based, human; conditions: 10 μM
# MALME-3M = assay: NCI one-dose screening, melanoma MALME-3M; type: cell-based, human; conditions: 10 μM
# M14 = assay: NCI one-dose screening, melanoma M14; type: cell-based, human; conditions: 10 μM
# UACC-62 = assay: NCI one-dose screening, melanoma UACC-62; type: cell-based, human; conditions: 10 μM
# UACC-257 = assay: NCI one-dose screening, melanoma UACC-257; type: cell-based, human; conditions: 10 μM
# SK-MEL-2 = assay: NCI one-dose screening, melanoma SK-MEL-2; type: cell-based, human; conditions: 10 μM
# SK-MEL-28 = assay: NCI one-dose screening, melanoma SK-MEL-28; type: cell-based, human; conditions: 10 μM
# SK-MEL-5 = assay: NCI one-dose screening, melanoma SK-MEL-5; type: cell-based, human; conditions: 10 μM
# IGROV1 = assay: NCI one-dose screening, ovarian cancer IGROV1; type: cell-based, human; conditions: 10 μM
# OVCAR-3 = assay: NCI one-dose screening, ovarian cancer OVCAR-3; type: cell-based, human; conditions: 10 μM
# OVCAR-5 = assay: NCI one-dose screening, ovarian cancer OVCAR-5; type: cell-based, human; conditions: 10 μM
# OVCAR-8 = assay: NCI one-dose screening, ovarian cancer OVCAR-8; type: cell-based, human; conditions: 10 μM
# SK-OV-3 = assay: NCI one-dose screening, ovarian cancer SK-OV-3; type: cell-based, human; conditions: 10 μM
# 786-O = assay: NCI one-dose screening, renal cancer 786-O; type: cell-based, human; conditions: 10 μM
# [2] = NCI one-dose screening, renal cancer A489; type: cell-based, human; conditions: 10 μM
# ACHN = assay: NCI one-dose screening, renal cancer ACHN; type: cell-based, human; conditions: 10 μM
# SN12C = assay: NCI one-dose screening, renal cancer SN12C; type: cell-based, human; conditions: 10 μM
# TK-10 = assay: NCI one-dose screening, renal cancer TK-10; type: cell-based, human; conditions: 10 μM
# UO-31 = assay: NCI one-dose screening, renal cancer UO-31; type: cell-based, human; conditions: 10 μM
# RXF, 393 = assay: NCI one-dose screening, renal cancer RXF, 393; type: cell-based, human; conditions: 10 μM
# DU145 = assay: NCI one-dose screening, prostate cancer DU145; type: cell-based, human; conditions: 10 μM
# PC-3 = assay: NCI one-dose screening, prostate cancer PC-3; type: cell-based, human; conditions: 10 μM
# MCF7 = assay: NCI one-dose screening, breast cancer MCF7; type: cell-based, human; conditions: 10 μM
# HS 578-T = assay: NCI one-dose screening, breast cancer HS 578-T; type: cell-based, human; conditions: 10 μM; Breast cancer
# MDA-MB-231/ATCC = assay: NCI one-dose screening, breast cancer MDA-MB-231/ATCC; type: cell-based, human; conditions: 10 μM
# MDA-MB-468 = assay: NCI one-dose screening, breast cancer MDA-MB-468; type: cell-based, human; conditions: 10 μM
# NCl/ADR-RES = assay: NCI one-dose screening, breast cancer NCl/ADR-RES; type: cell-based, human; conditions: 10 μM; listed under Ovarian cancer
# BT-549 = assay: NCI one-dose screening, breast cancer BT-549; type: cell-based, human; conditions: 10 μM
# T-47D = assay: NCI one-dose screening, breast cancer T-47D; type: cell-based, human; conditions: 10 μM
# MDA, -MB-435 = assay: NCI one-dose screening, breast cancer MDA, -MB-435; type: cell-based, human; conditions: 10 μM; listed under Melanoma
# human tumor cell lines = assay: NCI one-dose screening, Mean / Delta / Range of growth percent over all tested cell lines; type: cell-based; conditions: 10 μM
compound,measurement,setting,value
"Cc1ccc(Sc2cc3c(c4nsnc24)C(=O)c2ccccc2C3=O)c(C)c1 [C25, 4-(2,4-dimethylphenylthio)anthra[2,1-c] [1,2,5]thiadiazol-6,11-dione]",IC50,[1],> 15 µM
same,Growth Percent HL-60(TB),"HL-60, TB",99.93%
same,Growth Percent MOLT-4,MOLT-4,91.01%
same,Growth Percent SR,SR,70.26%
same,Growth Percent RPMI-8226,PRMI-8226 cell line,85.14%
same,Growth Percent K562,K562cell line,67.97%
same,Growth Percent EKVX,EKVX,108.79%
same,Growth Percent HOP-62,HOP-62,79.34%
same,Growth Percent HOP-92,HOP-92,97.83%
same,Growth Percent NCI-H226,NCI-H226,01.50%
same,Growth Percent NCI-H23,NCI-H23,89.40%
same,Growth Percent NCI-H460,NCI-H460,102.01%
same,Growth Percent NCI-H522,NCI-H522,96.81%
same,Growth Percent A549/ATCC,A549/ATCC,109.80%
same,Growth Percent COLO 205,COLO 205,106.63%
same,Growth Percent HCC-2998,HCC-2998,121.23%
same,Growth Percent HCT-116,HCT-116,94.55%
same,Growth Percent HCT-15,HCT-15,83.04%
same,Growth Percent KM12,KM12,96.42%
same,Growth Percent HT29,HT29,101.47%
same,Growth Percent SF-268,SF-268,90.61%
same,Growth Percent SF-539,SF-539,100.22%
same,Growth Percent SNB-19,SNB-19,102.33%
same,Growth Percent SNB-75,SNB-75,76.05%
same,Growth Percent U251,U251,104.99%
same,Growth Percent LOX IMVI,LOX IMVI,90.38%
same,Growth Percent MALME-3M,MALME-3M,108.23%
same,Growth Percent M14,M14,100.77%
same,Growth Percent UACC-62,UACC-62,94.50%
same,Growth Percent UACC-257,UACC-257,121.93%
same,Growth Percent SK-MEL-2,SK-MEL-2,98.52%
same,Growth Percent SK-MEL-28,SK-MEL-28,118.64%
same,Growth Percent SK-MEL-5,SK-MEL-5,109.99%
same,Growth Percent IGROV1,IGROV1,95.00%
same,Growth Percent OVCAR-3,OVCAR-3,105.38%
same,Growth Percent OVCAR-5,OVCAR-5,106.46%
same,Growth Percent OVCAR-8,OVCAR-8,104.59%
same,Growth Percent SK-OV-3,SK-OV-3,110.36%
same,Growth Percent 786-0,786-O,105.11%
same,Growth Percent A498,[2],84.37%
same,Growth Percent ACHN,ACHN,94.24%
same,Growth Percent SN12C,SN12C,98.68%
same,Growth Percent TK-10,TK-10,127.11%
same,Growth Percent UO-31,UO-31,65.72%
same,Growth Percent RXF 393,"RXF, 393",105.93%
same,Growth Percent DU145,DU145,109.69%
same,Growth Percent PC-3,PC-3,76.11%
same,Growth Percent MCF7,MCF7,79.77%
same,Growth Percent HS 578T,HS 578-T,99.06%
same,Growth Percent MDA-MB-231/ATCC,MDA-MB-231/ATCC,92.27%
same,Growth Percent MDA-MB-468,MDA-MB-468,100.45%
same,Growth Percent NCI/ADR-RES,NCl/ADR-RES,97.75%
same,Growth Percent BT-549,BT-549,94.55%
same,Growth Percent T-47D,T-47D,75.36%
same,Growth Percent MDA-MB-435,"MDA, -MB-435",105.58%
same,Growth Percent Delta,human tumor cell lines; delta over all cell lines,31.54%
same,Growth Percent Mean,human tumor cell lines; mean over all cell lines,97.26%
same,Growth Percent Range,human tumor cell lines; range over all cell lines,61.39%
